What was measured:
[1] = Reaction with nitrogen monoxide (NOC 13 as nitrogen monoxide generating agent), excitation/fluorescence spectra and HPLC; settings: 1 hour, 0.1 M sodium phosphate buffer (pH 7.4)
Method: NOC 13, which is a nitrogen monoxide generating agent, was added to Compound (7), and changes of excitation and fluorescence emission spectra were measured. The compound (7) at 5 μM (cosolvent: 0.1% DMSO) and NOC 13 were incubated at 37° C. for 1 hour in 0.1 M sodium phosphate buffer (pH 7.4), and then excitation and fluorescence spectra were measured. The measurement was performed with slit widths of Ex/Em=2.5/2.5 nm, excitation wavelength of 520 nm, and emission wavelength of 535 nm.

[2] = Fluorescence spectrum: fluorescence characteristics and quantum yield; assay type: physicochemical; settings: 0.1 M sodium phosphate buffer (pH 7.4), 20° C.
Method: The fluorescence characteristics of Compound (7) and Compound (8) were measured. The quantum yield was measured by using F-4500 (Hitachi), and the other spectra were measured by using LS50B (Perkin Elmer). The measurement was performed at 20° C. for a solution of a sample dissolved in 0.1 M sodium phosphate buffer (pH 7.4) using dimethyl sulfoxide of less than 0.2% as a cosolvent. The quantum yield was calculated relative to that of fluorescein, which was 0.85 in aqueous 0.1 M NaOH. When similar quantum yield measurements were performed for a compound of the formula (I) wherein R^6 and R^9 were hydrogen atoms (p-DAMBO) and a compound of the formula (II) wherein R^16 and R^19 were hydrogen atoms (p-DAMBO-T) as controls, the quantum yields were 0.001 and 0.40, respectively.

[3] = Effect of pH on the fluorescence intensity; assay type: physicochemical; settings: 0.1 M sodium phosphate buffer, 0.1% DMSO, pH range of from 3 to 13
Method: Compounds (7) and (8) were dissolved in 0.1 M sodium phosphate buffer (cosolvents 0.1% DMSO) adjusted to various pH values, and fluorescence was measured in the same manner as those in the aforementioned (b). […] Therefore, according to the measurement of nitrogen monoxide by using the compound of the present invention, extremely high accuracy of the measurement is achieved for a biosample with pH fluctuation.

[4] = DMSO less than 0.2% as cosolvent

For `CC1=C(CCC(=O)O)C(C)=[N+]2C1=C(c1ccc(N)c(N)c1)c1c(C)c(CCC(=O)O)c(C)n1[B-]2(F)F` [Compound (7), 8-(3,4-Diaminophenyl)-2,6-bis(2-carboxyethyl)-4,4-difluoro-1,3,5,7-tetramethyl-4-bora-3a,4a-diaza-s-indacene], the “rate of reaction with nitrogen monoxide (HPLC of product)” value ([1]; compound at 5 μM with NOC 13, 37° C.) was “extremely rapid reaction” and the “change of fluorescence after addition of NOC 13” value ([1]; compound at 5 μM, NOC 13 0-5.0 μM, 37° C., Ex 520 nm / Em 535 nm) was “Increase of fluorescence depending on the concentration of added NOC 13”.

With `CC1=C(CCC(=O)O)C(C)=[N+]2C1=C(c1ccc3[nH]nnc3c1)c1c(C)c(CCC(=O)O)c(C)n1[B-]2(F)F` [Compound (8), 8-(5-Benzotriazolyl)-2,6-bis(2-carboxyethyl)-4,4-difluoro-1,3,5,7-tetramethyl-4-bora-3a,4a-diaza-s-indacene] the Emission maximum [2, 4] was 537 nm, the Extinction coefficient [2, 4] was 56000 M⁻¹ cm⁻¹ and the Extinction maximum [2, 4] was 521 nm. The Relative quantum yield ([2]; relative to fluorescein (0.85 in aqueous 0.1 M NaOH)) was 0.74 and the “change in fluorescence intensity with pH” value [3] was “Almost no change in the fluorescence intensity”.
